Legend:
JAK2 = JAK2 (Homo sapiens, UniProt O60674); assay: JAK2 Inhibition Assay; type: biochemical; conditions: JAK-2 enzyme, 15 μM poly(Glu)4Tyr, 12 μM ATP
Method: (§1) Compounds were screened for their ability to inhibit JAK3 using the assay shown below. Reactions were carried out in a kinase buffer containing 100 mM HEPES (pH 7.4), 1 mM DTT, 10 mM MgCl2, 25 mM NaCl, and 0.01% BSA. Substrate concentrations in the assay were 5 μM ATP (200 uCi/μmole ATP) and 1 μM poly(Glu)4Tyr. Reactions were carried out 25° C. and 1 nM JAK3.
(§2) To each well of a 96 well polycarbonate plate was added 1.5 μl of a candidate JAK3 inhibitor along with 50 μl of kinase buffer containing 2 μM poly(Glu)4Tyr and 10 μM ATP. This was then mixed and 50 μl of kinase buffer containing 2 nM JAK3 enzyme was added to start the reaction. After 20 minutes at room temperature (25° C.), the reaction was stopped with 50 μl of 20% trichloroacetic acid (TCA) that also contained 0.4 mM ATP. The entire contents of each well were then transferred to a 96 well glass fiber filter plate using a TomTek Cell Harvester. After washing, 60 μl of scintillation fluid was added and ^33P incorporation detected on a Perkin Elmer TopCount.
The assays were as described above in Example 36 except that JAK-2 enzyme was used, the final poly(Glu)4Tyr concentration was 15 μM, and final ATP concentration was 12 μM.

JAK3 = target: T1, JAK3 (Homo sapiens, UniProt P52333); assay: JAK3 Inhibition Assay; type: biochemical; conditions: 1 nM JAK3, 1 μM poly(Glu)4Tyr, 5 μM ATP, 25° C.; read-out: enzyme inhibition data (Ki) JAK3
T1 sequence (P52333 1-1124): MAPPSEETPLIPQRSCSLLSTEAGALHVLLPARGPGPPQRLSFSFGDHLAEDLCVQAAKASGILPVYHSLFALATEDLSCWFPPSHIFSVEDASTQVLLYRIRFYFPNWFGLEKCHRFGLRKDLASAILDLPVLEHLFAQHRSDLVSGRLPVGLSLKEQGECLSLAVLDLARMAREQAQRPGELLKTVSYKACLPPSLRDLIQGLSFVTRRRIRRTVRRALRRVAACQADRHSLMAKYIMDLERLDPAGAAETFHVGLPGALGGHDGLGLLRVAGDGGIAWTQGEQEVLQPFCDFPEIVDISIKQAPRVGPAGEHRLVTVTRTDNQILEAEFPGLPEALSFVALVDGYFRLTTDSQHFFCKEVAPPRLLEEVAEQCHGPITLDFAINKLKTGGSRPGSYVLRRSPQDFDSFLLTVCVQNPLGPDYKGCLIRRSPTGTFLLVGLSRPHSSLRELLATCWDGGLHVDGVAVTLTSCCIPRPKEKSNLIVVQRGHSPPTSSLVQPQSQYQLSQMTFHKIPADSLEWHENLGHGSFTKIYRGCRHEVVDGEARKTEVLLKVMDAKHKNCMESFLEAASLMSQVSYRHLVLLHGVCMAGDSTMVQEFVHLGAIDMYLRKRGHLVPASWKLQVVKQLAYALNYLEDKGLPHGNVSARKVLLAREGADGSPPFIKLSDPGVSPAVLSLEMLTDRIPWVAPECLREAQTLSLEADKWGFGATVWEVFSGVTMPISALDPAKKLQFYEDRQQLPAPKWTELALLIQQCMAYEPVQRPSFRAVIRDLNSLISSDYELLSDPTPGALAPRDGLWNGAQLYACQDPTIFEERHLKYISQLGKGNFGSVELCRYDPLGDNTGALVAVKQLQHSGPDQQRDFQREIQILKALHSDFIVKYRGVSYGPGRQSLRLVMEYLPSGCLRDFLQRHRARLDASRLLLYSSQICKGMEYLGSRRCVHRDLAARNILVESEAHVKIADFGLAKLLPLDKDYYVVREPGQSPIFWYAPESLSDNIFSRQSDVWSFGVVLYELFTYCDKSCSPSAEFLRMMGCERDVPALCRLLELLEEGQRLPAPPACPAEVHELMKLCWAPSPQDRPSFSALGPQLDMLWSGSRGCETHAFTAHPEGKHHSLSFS
Method: as §1, §2

Sequence of JAK2 (O60674 whole entry): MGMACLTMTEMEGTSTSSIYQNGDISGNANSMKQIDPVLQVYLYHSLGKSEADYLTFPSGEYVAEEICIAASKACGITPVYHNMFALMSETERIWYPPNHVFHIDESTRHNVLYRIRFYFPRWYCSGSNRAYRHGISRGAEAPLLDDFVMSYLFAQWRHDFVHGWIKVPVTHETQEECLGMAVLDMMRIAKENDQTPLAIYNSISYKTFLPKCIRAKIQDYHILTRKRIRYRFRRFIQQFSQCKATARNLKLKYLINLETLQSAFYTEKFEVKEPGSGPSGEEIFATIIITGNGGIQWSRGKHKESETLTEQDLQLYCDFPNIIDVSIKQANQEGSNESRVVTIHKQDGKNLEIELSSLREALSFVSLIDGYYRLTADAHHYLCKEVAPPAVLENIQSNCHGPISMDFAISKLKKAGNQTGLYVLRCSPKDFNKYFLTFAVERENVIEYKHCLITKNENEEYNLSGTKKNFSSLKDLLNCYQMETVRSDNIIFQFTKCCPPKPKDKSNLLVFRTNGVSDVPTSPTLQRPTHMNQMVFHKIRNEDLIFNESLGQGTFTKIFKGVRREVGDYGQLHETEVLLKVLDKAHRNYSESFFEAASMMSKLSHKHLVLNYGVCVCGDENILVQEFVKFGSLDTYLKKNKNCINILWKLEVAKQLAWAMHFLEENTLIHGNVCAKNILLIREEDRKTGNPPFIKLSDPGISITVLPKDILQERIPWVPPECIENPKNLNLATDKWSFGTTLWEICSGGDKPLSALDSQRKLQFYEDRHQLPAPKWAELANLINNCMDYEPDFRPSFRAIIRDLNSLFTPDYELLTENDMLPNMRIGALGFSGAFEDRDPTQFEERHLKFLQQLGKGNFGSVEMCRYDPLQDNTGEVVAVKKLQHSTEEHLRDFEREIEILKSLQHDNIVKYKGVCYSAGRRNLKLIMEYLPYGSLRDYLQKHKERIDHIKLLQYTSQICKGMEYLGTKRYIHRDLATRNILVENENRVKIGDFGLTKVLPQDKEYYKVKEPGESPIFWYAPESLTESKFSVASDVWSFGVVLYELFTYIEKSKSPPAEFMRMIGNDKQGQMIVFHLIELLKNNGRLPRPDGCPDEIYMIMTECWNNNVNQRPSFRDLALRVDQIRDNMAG

Row | Compound | Ki (JAK2) [nM] | Ki (JAK3) [nM]
1 | C[C@H](Nc1cc(N2CCCC2)nc(-c2c[nH]c3ncncc23)n1)C(=O)NCC(F)(F)F [Compound 32, (S)-2-(6-(pyrrolidin-1-yl)-2-(7H-pyrrolo[2,3-d]pyrimidin-5-yl)pyrimidin-4-ylamino)-N-(2,2,2-trifluoroethyl)propanamide] | > 5000 | > 5000
2 | C[C@H](Nc1nc(-c2c[nH]c3ncncc23)nc(N2CCCC2)n1)C(=O)NCC(F)(F)F [Compound 33, (S)-2-(4-(pyrrolidin-1-yl)-6-(7H-pyrrolo[2,3-d]pyrimidin-5-yl)-1,3,5-triazin-2-ylamino)-N-(2,2,2-trifluoroethyl)propanamide] | > 5000 | > 5000
3 | C[C@H](Nc1nc(-c2c[nH]c3ncncc23)nc2ccccc12)C(=O)NCC(F)(F)F [Compound 34] | 500 to 5000 | < 500
4 | C[C@H](Nc1nc(-c2c[nH]c3ncncc23)cc(N2CCOCC2)n1)C(=O)NCC(F)(F)F [Compound 35] | > 5000 | 500 to 5000
5 | C[C@H](Nc1cc(N2CCOCC2)nc(-c2c[nH]c3ncncc23)n1)C(=O)NCC(F)(F)F [Compound 36, (S)-2-(6-morpholino-2-(7H-pyrrolo[2,3-d]pyrimidin-5-yl)pyrimidin-4-ylamino)-N-(2,2,2-trifluoroethyl)propanamide] | > 5000 | > 5000
6 | C[C@H](Nc1nc(-c2c[nH]c3ncncc23)nc(N2CCOCC2)n1)C(=O)NCC(F)(F)F [Compound 37, (S)-2-(4-morpholino-6-(7H-pyrrolo[2,3-d]pyrimidin-5-yl)-1,3,5-triazin-2-ylamino)-N-(2,2,2-trifluoroethyl)propanamide] | > 5000 | > 5000
7 | C[C@@H](Nc1nc(-c2c[nH]c3ncncc23)nc2ccccc12)C(=O)NCC(F)(F)F [Compound 38] | < 500 | < 500
8 | C[C@@H](Nc1ccnc(-c2c[nH]c3ncncc23)n1)C(=O)NCC(F)(F)F [Compound 39, (R)-2-(2-(7H-pyrrolo[2,3-d]pyrimidin-5-yl)pyrimidin-4-ylamino)-N-(2,2,2-trifluoroethyl)propanamide] | < 500 | < 500
9 | C[C@@H](Nc1nc(-c2c[nH]c3ncncc23)ncc1F)C(=O)NCC(F)(F)F [Compound 40, (R)-2-(5-fluoro-2-(7H-pyrrolo[2,3-d]pyrimidin-5-yl)pyrimidin-4-ylamino)-N-(2,2,2-trifluoroethyl)propanamide] | < 500 | < 500
10 | CC[C@H](Nc1nc(-c2c[nH]c3ncncc23)ncc1F)C(=O)NCC(F)(F)F [Compound 41, (S)-2-(5-fluoro-2-(7H-pyrrolo[2,3-d]pyrimidin-5-yl)pyrimidin-4-ylamino)-N-(2,2,2-trifluoroethyl)butanamide] | 500 to 5000 | < 500
11 | COC[C@H](Nc1nc(-c2c[nH]c3ncncc23)ncc1F)C(=O)NCC(F)(F)F [Compound 42, (S)-2-(5-fluoro-2-(7H-pyrrolo[2,3-d]pyrimidin-5-yl)pyrimidin-4-ylamino)-N-(2,2,2-trifluoroethyl)-3-methoxypropanamide] | 500 to 5000 | < 500
12 | CNC(=O)C(CC(F)(F)F)Nc1nc(-c2c[nH]c3ncncc23)ncc1F (stereo not shown) [Compound 43, 2-(5-fluoro-2-(7H-pyrrolo[2,3-d]pyrimidin-5-yl)pyrimidin-4-ylamino)-4,4,4-trifluoro-N-methylbutanamide] | 500 to 5000 | 500 to 5000
13 | CCNC(=O)C(CC(F)(F)F)Nc1nc(-c2c[nH]c3ncncc23)ncc1F (stereo not shown) [Compound 44, 2-(5-fluoro-2-(7H-pyrrolo[2,3-d]pyrimidin-5-yl)pyrimidin-4-ylamino)-N-ethyl-4,4,4-trifluorobutanamide] | 500 to 5000 | 500 to 5000
14 | O=C(NCC(F)(F)F)C(CC(F)(F)F)Nc1nc(-c2c[nH]c3ncncc23)ncc1F (stereo not shown) [Compound 45, 2-(5-fluoro-2-(7H-pyrrolo[2,3-d]pyrimidin-5-yl)pyrimidin-4-ylamino)-4,4,4-trifluoro-N-(2,2,2-trifluoroethyl)butanamide] | < 500 | < 500
15 | C[C@H](Nc1nc(-c2c[nH]c3ncncc23)ccc1[N+](=O)[O-])C(=O)NCC(F)(F)F [Compound 46] | 500 to 5000 | < 500
16 | COC[C@H](Nc1nc(-c2c[nH]c3ncncc23)nc2ccccc12)C(=O)NCC(F)(F)F [Compound 47] | > 5000 | 500 to 5000
17 | COC[C@H](Nc1ccnc(-c2c[nH]c3ncncc23)n1)C(=O)NCC(F)(F)F [Compound 48, (S)-2-(2-(7H-pyrrolo[2,3-d]pyrimidin-5-yl)pyrimidin-4-ylamino)-N-(2,2,2-trifluoroethyl)-3-methoxypropanamide] | > 5000 | 500 to 5000
18 | Nc1nc(-c2c[nH]c3ncncc23)ncc1F [Compound 49] | > 5000 | 500 to 5000
19 | O=C(NCC(F)(F)F)[C@H](CO)Nc1nc(-c2c[nH]c3ncncc23)ncc1F [Compound 50] | 500 to 5000 | < 500
20 | O=C(NCC(F)(F)F)[C@H](CO)Nc1ccnc(-c2c[nH]c3ncncc23)n1 [Compound 51] | > 5000 | > 5000
21 | O=C(NCC(F)(F)F)[C@@H]1C[C@H](F)CN1c1nc(-c2c[nH]c3ncncc23)ncc1F [Compound 52] | 500 to 5000 | 500 to 5000
22 | O=C(NCC(F)(F)F)[C@@H]1C[C@@H](F)CN1c1nc(-c2c[nH]c3ncncc23)ncc1F [Compound 53] | > 5000 | 500 to 5000
23 | O=C(NCC(F)(F)F)[C@H]1CCCCN1c1cnc(-c2c[nH]c3ncncc23)nc1 [Compound 54] | < 500 | < 500

Other lines, results leading:

Row | Ki (JAK2) [nM] | Ki (JAK3) [nM] | Compound
24 | 500 to 5000 | 500 to 5000 | O=C(NCC(F)(F)F)[C@@H]1CCN1c1cnc(-c2c[nH]c3ncncc23)nc1 [Compound 55]
25 | < 500 | < 500 | CC(C)(Nc1nc(-c2c[nH]c3ncncc23)ncc1F)C(=O)NCC(F)(F)F [Compound 56, 2-(5-fluoro-2-(7H-pyrrolo[2,3-d]pyrimidin-5-yl)pyrimidin-4-ylamino)-N-(2,2,2-trifluoroethyl)-2-methylpropanamide]
26 | < 500 | < 500 | O=C(NCC(F)(F)F)C1(Nc2nc(-c3c[nH]c4ncncc34)ncc2F)CC1 [Compound 57]
27 | < 500 | < 500 | C[C@@H](Nc1nc(-c2c[nH]c3ncncc23)ncc1F)c1ccc(F)cc1 [Compound 58]
28 | < 500 | < 500 | C[C@H](Nc1nc(-c2c[nH]c3ncncc23)ncc1F)c1ccc(F)cc1 [Compound 59]
29 | 500 to 5000 | < 500 | O=C(NCC(F)(F)F)C1COCCN1c1cnc(-c2c[nH]c3ncncc23)nc1 (stereo not shown) [Compound 60]
30 | 500 to 5000 | < 500 | O=C(NCC(F)(F)F)[C@@H]1CCCCN1c1ccnc(-c2c[nH]c3ncncc23)n1 [Compound 61]
31 | < 500 | < 500 | O=C(NCC(F)(F)F)C1(Nc2nc(-c3c[nH]c4ncncc34)ncc2F)CCCCC1 [Compound 62]
32 | < 500 | < 500 | CC(C)(Nc1ccnc(-c2c[nH]c3ncncc23)n1)C(=O)NCC(F)(F)F [Compound 63]
33 | < 500 | < 500 | O=C(NCC(F)(F)F)C1(Nc2ccnc(-c3c[nH]c4ncncc34)n2)CCC1 [Compound 64]
34 | < 500 | < 500 | CC(C)[C@@](C)(Nc1nc(-c2c[nH]c3ncncc23)ncc1F)C(=O)NCC(F)(F)F [Compound 65]
35 | < 500 | < 500 | CC(C)C(C(=O)NCC(F)(F)F)N(C)c1nc(-c2c[nH]c3ncncc23)ncc1F (stereo not shown) [Compound 66]
